Each block holds one compound with its values, some of them ahead of it.
How the values were obtained:
[1] = target: T1, human histamine H2 receptor (Homo sapiens, UniProt P25021); test: Radioligand binding at cloned human histamine H2; settings: [3H]tiotidine
T1 construct: expressed in transfected cells; host or cells: COS-7 (plasmid pcEXV-H2, ATCC 75345)
Description: Human Histamine H2 Receptor
The coding sequence of the human H2 receptor was obtained from a human placenta genomic library, and cloned into the cloning site of PCEXV-3 eukaryotic expression vector. The plasmid DNA for the H2 receptor is designated pcEXV-H2, and was deposited on Nov. 6, 1992 under ATCC Accession No. 75345. This construct was transfected into COS-7 cells by the DEAE-dextran method. Cells were harvested after 72 hours and lysed by sonication in 5 mM Tris-HCl, 5 mM EDTA, pH 7.5. The cell lysates were centrifuged at 1000 rpm for 5 min at 4° C., and the supernatant was centrifuged at 30,000×g for 20 min at 4° C. The pellet was suspended in 37.8 mM NaHPO4, 12.2 mM K2PO4, pH 7.5. The binding of the histamine H2 antagonist [3H] tiotidine (5 nM, specific activity: about 70 Ci/mM) was done in a final volume of 0.25 ml and incubated at room temperature for 60 min. Nonspecific binding was determined in the presence of 10 μM histamine. The bound radioligand was separated by filtration through GF/B filters using a cell harvester.

[2] = target: T2, female dog urethra (α1-adrenoceptor) (Canis lupus, UniProt A0A8I3NK63); test: Contractile study in isolated female dog urethra; settings: for pEC50 Urethra: agonist contraction
T2 sequence (A0A8I3NK63 1-466): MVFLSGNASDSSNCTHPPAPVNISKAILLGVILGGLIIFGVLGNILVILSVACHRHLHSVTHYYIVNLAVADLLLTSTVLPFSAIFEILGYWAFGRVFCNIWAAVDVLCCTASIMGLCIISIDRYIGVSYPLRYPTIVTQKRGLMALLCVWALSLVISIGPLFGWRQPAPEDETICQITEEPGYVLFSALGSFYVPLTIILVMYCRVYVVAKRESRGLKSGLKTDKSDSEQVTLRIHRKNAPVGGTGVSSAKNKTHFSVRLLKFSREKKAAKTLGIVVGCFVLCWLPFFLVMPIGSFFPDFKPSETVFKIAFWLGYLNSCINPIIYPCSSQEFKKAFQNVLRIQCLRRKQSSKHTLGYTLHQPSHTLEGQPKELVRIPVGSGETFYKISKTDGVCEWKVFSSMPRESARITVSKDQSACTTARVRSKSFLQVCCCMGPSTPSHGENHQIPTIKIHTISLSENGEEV
Source text: (§1) In addition, similar studies were done using bladder neck tissue from female dogs. In order to identify the specific receptor subtype in each tissue, the pharmacological profile was compared to the profiles for these same drugs at the cloned human α1A, α1B, or α1C subtypes.
(§2) Tissue samples from the proximal urethra of male humans and male and female rabbits, as well as tissue samples from both the proximal urethra and bladder neck of male and female dogs were cut into transverse strips (3×10 mm) and suspended under 0.5 g tension in Krebs' physiological buffer at 37° C. To determine agonist potency (pEC50 )and antagonist affinity constants (pKB), concentration-effect curves to the non-selective agonist phenylepherine were constructed in the absence and in the presence of increasing concentrations of the antagonist. Up to four sequential curves were constructed in each tissue. Antagonists were allowed to equilibrate for 1h before each concentration-effect curve, and the drugs were completely washed out in between successive curves. In each experiment, one tissue served as a "time control", in which no antagonist was added so that changes in tissue sensitivity could be assessed as a function of time. […] In instances in which a single concentration of antagonist was used, pKB values were determined by the equation: […], where CR is defined as the ratio of the agonist EC50 in the presence of the antagonist to that in the absence of the antagonist.

[3] = target: T3, human 5-HT2 receptor (Homo sapiens, UniProt P28223); test: Radioligand binding at human 5-HT2; settings: [3H]ketanserin; read-out: pKi 5-HT2 (converted)
T3 construct: expressed in transfected cells; host or cells: COS-7 cells (text also names deposited cell line L-NGC-5-HT2, ATCC CRL 10287)
Description: The coding sequence of the human 5-HT2 receptor was obtained from a human brain cortex cDNA library, and cloned into the cloning site of pCEXV-3 eukaryotic expression vector. This construct was transfected into COS-7 cells by the DEAE-dextran method. Cells were harvested after 72 hours and lysed by sonication in 5 mM Tris-HCl, 5 mM EDTA, pH 7.5. This cell line was deposited with the ATCC on Oct. […] The cell lysates were centrifuged at 1000 rpm for 5 minutes at 4° C., and the supernatant was centrifuged at 30,000×g for 20 minutes at 4° C. The pellet was suspended in 50 mM Tris-HCl buffer (pH 7.7 at room temperature) containing 10 mM MgSO4, 0.5 mM EDTA, and 0.1% ascorbate. […] Nonspecific binding was defined by the addition of 10 μM mianserin. The bound radioligand was separated by filtration through GF/B filters using a cell harvester.

[4] = target: T4, rabbit urethra, male (α1-adrenoceptor) (Oryctolagus cuniculus, UniProt O02824); test: Contractile study in isolated male rabbit urethra; settings: versus phenylephrine-induced contraction
T4 sequence (O02824 1-466): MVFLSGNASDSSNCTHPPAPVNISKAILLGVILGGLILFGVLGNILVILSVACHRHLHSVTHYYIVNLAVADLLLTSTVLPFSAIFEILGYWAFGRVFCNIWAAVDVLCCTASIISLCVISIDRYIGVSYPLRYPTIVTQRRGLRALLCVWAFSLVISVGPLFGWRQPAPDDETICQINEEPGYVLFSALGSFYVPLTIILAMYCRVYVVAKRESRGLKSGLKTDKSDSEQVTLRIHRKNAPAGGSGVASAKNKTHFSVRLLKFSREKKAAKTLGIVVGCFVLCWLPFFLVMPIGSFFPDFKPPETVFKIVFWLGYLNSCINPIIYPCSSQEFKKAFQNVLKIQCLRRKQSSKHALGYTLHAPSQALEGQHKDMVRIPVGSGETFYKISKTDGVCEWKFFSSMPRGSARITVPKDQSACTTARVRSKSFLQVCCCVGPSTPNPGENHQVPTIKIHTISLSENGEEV
Source text: as §1, §2

T1 sequence (P25021 whole entry): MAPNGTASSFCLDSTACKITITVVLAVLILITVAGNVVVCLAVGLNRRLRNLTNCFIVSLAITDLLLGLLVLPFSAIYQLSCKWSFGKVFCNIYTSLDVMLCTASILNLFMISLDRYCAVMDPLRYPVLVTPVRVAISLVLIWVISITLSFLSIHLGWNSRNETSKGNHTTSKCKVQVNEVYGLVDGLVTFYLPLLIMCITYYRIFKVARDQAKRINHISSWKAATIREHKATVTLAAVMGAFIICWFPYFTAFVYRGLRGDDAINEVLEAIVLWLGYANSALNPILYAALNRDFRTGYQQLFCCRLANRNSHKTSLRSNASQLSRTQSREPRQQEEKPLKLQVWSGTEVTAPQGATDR
T3 sequence (P28223 whole entry): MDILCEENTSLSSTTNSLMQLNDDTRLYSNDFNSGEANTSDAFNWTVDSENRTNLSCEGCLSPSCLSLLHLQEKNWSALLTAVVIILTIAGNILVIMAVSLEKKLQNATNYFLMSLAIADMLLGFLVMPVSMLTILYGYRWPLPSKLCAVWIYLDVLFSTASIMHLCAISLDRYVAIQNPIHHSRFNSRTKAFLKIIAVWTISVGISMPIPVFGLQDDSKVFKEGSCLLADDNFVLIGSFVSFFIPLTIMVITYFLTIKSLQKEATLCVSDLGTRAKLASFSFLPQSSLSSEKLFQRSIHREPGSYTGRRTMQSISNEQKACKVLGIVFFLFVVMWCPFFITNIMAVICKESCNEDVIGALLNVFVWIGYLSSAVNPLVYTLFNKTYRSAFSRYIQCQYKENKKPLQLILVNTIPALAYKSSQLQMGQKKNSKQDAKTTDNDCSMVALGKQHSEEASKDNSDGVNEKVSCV

SMILES: CNCCc1ccc(O)c(NS(C)(=O)=O)c1 [SK&F 102652]
- pKi H2 [1]: 4.6
- sensitivity of the contraction to prazosin, urethra [2]: highly sensitive to prazosin
- pEC50 Urethra [2]: 6.0

SMILES: COc1ccc(SC)c2c1C[C@@H]1[C@@H](C2)OCCN1C (relative stereo) [SDZ NVI-085, (±)-trans-4-Methyl-6-methoxy-9-thiomethoxy-3,4,4a, 5,10,10a-hexahydro-2H-naphtho[2,3-b][1,4]oxazine]
- Ki ([1]; read-out: pKi H2 (converted)): 6.31 µM
- Ki [3]: 0.316 µM

- pKB Rabbit Urethra Male [4]: 7.8
SMILES: COc1ccccc1N1CCN(CCCNc2c(C)c(=O)n(C)c(=O)n2C)CC1 [Compound 5-MU]

SMILES: CS(=O)(=O)Nc1c(O)ccc2c1CCCC2C1=NCCN1 (racemic) [Compound A-61603, (±)-N-[5-(4,5-Dihydro-1H-imidazol-2-yl)-2-hydroxy-5,6,7,8-tetra-hydronaphthalen-1-yl]methanesulfonamide]
- Ki [3]: 50.1 µM
- sensitivity of the contraction to prazosin, urethra [2]: highly sensitive to prazosin
- pEC50 Urethra [2]: 6.7

SMILES: COc1cc2c(cc1OC)CN(c1cc(N)c3cc(OC)c(OC)cc3n1)CC2 [Abanoquil, 2-(6,7-Dimethoxy-3,4-dihydro-1H-isoquinolin-2-yl)-6,7-dimethoxyquinolin-4-ylamine hemifumarate hydrate]
- pKB Rabbit Urethra Male [4]: 8.7

Reference: patent US5610174A, “Use of α1A -selective adrenoceptor agonists for the treatment of urinary incontinence” (priority 1995, dated 1997)
